Experimental data: patent US20120288883A1, “PROBE REAGENT FOR MEASUREMENT OF PROTEOLYTIC ACTIVITY” (RIKEN, priority 2010, published 2012)

What follows are substances tested on ubiquitin-proteasome system (assay: Screening for degradation-terminating peptide: FRET fluorescence imaging of probe reagents expressed in HeLa cells). Settings: CyPet/YPet probe with Geminin (1/110) degron.
Assay type: cell-based
Excerpt: In order to develop a probe reagent of interest, p105 was screened for a peptide sequence capable of terminating degradation. CyPet as a fluorescent protein I, YPet as a fluorescent protein II, and Geminin as a degron protein were used to prepare an experimental probe reagent (FIG. 2). The fluorescent protein CyPet is derived from CFP and has an excitation wavelength peak of 435 nm and a fluorescence wavelength peak of 477 nm. The fluorescent protein YPet is derived from YFP and has an excitation wavelength peak of 517 nm and a fluorescence wavelength peak of 530 nm. This pair is known to efficiently cause FRET with CyPet as a donor and YPet as an acceptor. The protein Geminin is a factor controlling the progression of cell cycle and has the function of inhibiting the licensing of DNA replication (Cell 1998; 93 (11): 1043-1053; and Am. J. Pathol. 2002; 161 (1): 267-273). Its abundance is strictly controlled during cell cycle so that its expression level increases in the S/G2/M phases and this protein disappears due to the promoted degradation by the ubiquitin-proteasome system in the G1 phase. A region of N-terminal amino acids 1-110 (Geminin (1/110)) containing a moiety necessary for the degradation of the Geminin molecule was selected from the structure of Geminin (e.g., NM_015895 (human, SEQ ID NOs: 18 and 19), NM_020567 (mouse)) and used in this experiment.
The respective cDNAs of these molecules were amplified by PCR and ligated by insertion to each restriction enzyme site in the multicloning site of a cloning vector pBluescript II SK(+) (Stratagene) to prepare gene DNA of the probe reagent. A region of amino acids 366-440 in human-derived p105 (SEQ ID NOs: 16 and 17) was screened for a peptide sequence for terminating degradation. This region contains GRR and processing point.
The prepared gene DNA of the probe reagent was then excised from the pBlueScript vector with restriction enzymes, and this fragment was inserted into the multicloning site of an expression vector CSII-EF-MCS to prepare a vector for expression in cultured cells.
HeLa cells were cultured in a Dulbecco's modified Eagle's medium containing 10% fetal bovine serum in a 35 mmφ glass-bottomed dish. The prepared vector plasmid was mixed with a transfection reagent FuGENE (Roche Applied Science) and added to the medium. The HeLa cells were cultured in a CO2 incubator for 2 days so that the cells expressed the probe reagent and experienced cell cycle.
This is because the intramolecular nuclear localization signal of the Geminin protein, which functions in the nucleus, allowed the probe reagent to be selectively incorporated into the nucleus. The amount of Geminin changes periodically depending on the promoted or suppressed degradation by the ubiquitin-proteasome system in accordance with cell cycle. If the degradation of the probe reagent accompanying the degradation of Geminin is terminated by the degradation-terminating peptide, CyPet accumulates in the cell during every cell cycle without being degraded and thus reduces an YPet/CyPet fluorescence intensity ratio serving as an index value for FRET at the time of CyPet excitation. After the degradation of Geminin, the probe reagent lacks the nuclear localization signal. As a result, the remaining CyPet molecule also becomes distributed in the cytoplasm. The cells were fluorescently imaged from these viewpoints and screened for a peptide capable of terminating degradation.
An inverted microscope (IX70, Olympus Corp.) was used in cell observation. Fluorescence images were obtained using a 3-CCD cooled color camera (ORCA-3CCD, Hamamatsu Photonics K.K.). This camera can simultaneously capture images in three wavelength (red, green, and blue) regions and merge them to form observable color images. Also, it can individually measure the brightness of the image in each wavelength region. After excitation with a 440 nm band-pass filter, the fluorescence images of the cells were obtained through a 460 nm long-pass filter. […]

| Substance | ability of the peptide to terminate degradation of the probe reagent |
| --- | --- |
| p105 (392/440): probe reagent containing human p105 amino acids 392-440 (SEQ ID NO: 5) (GGGGGGTGSTGPGYSFPHYGFPTYGGITFHPGTTKSNAGMKHGTMDTES; listed as Homo sapiens) | capable of efficiently terminating protein degradation |
| GRR: glycine-rich region, amino acids 376-404 of human p105, tested alone as degradation-terminating peptide | failed to terminate the degradation |
| p105 (376/434): probe reagent containing human p105 amino acids 376-434 (SEQ ID NO: 7) (GGGSGAGAGGGGMFGSGGGGGGTGSTGPGYSFPHYGFPTYGGITFHPGTTKSNAGMKHG; listed as Homo sapiens) | capable of efficiently terminating protein degradation |
| p105 (376/420): probe reagent containing human p105 amino acids 376-420 (SEQ ID NO: 9) (GGGSGAGAGGGGMFGSGGGGGGTGSTGPGYSFPHYGFPTYGGITF; listed as Homo sapiens) | capable of efficiently terminating protein degradation |
| p105 (382/440): probe reagent containing human p105 amino acids 382-440 (SEQ ID NO: 3) (GAGGGGMFGSGGGGGGTGSTGPGYSFPHYGFPTYGGITFHPGTTKSNAGMKHGTMDTES; listed as Homo sapiens) | capable of efficiently terminating protein degradation |
| p105 (376/409): probe reagent containing human p105 amino acids 376-409 (SEQ ID NO: 11) (GGGSGAGAGGGGMFGSGGGGGGTGSTGPGYSFPH; listed as Homo sapiens) | capable of efficiently terminating protein degradation |
